Source: PubChem BioAssay (NCI)
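A five-concentration, 48-hour dose response in 96-well plates underlies each endpoint, interpolated linearly between surrounding concentrations. At the TGI there is no net growth.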

How the values were obtained:
Experiment in all cases: inhibition of tumour cell growth, NCI panel, 48 h
786-0 renal = tested on: 786-0 renal
A498 renal = tested on: A498 renal
A549 NSCLC = tested on: A549 NSCLC
ACHN renal = tested on: ACHN renal
BT-549 breast = tested on: BT-549 breast
CAKI-1 renal = tested on: CAKI-1 renal
CCRF-CEM leukemia = tested on: CCRF-CEM leukemia
COLO 205 colon = tested on: COLO 205 colon
DU-145 prostate = tested on: DU-145 prostate
EKVX NSCLC = tested on: EKVX NSCLC
HCC-2998 colon = tested on: HCC-2998 colon
HCT-116 colon = tested on: HCT-116 colon
HCT-15 colon = tested on: HCT-15 colon
HL-60(TB) leukemia = tested on: HL-60(TB) leukemia
HOP-62 NSCLC = tested on: HOP-62 NSCLC
HOP-92 NSCLC = tested on: HOP-92 NSCLC
HS 578T breast = tested on: HS 578T breast
HT29 colon = tested on: HT29 colon
IGROV1 ovarian = tested on: IGROV1 ovarian
K-562 leukemia = tested on: K-562 leukemia
KM12 colon = tested on: KM12 colon
LOX IMVI melanoma = tested on: LOX IMVI melanoma
M14 melanoma = tested on: M14 melanoma
MALME-3M melanoma = tested on: MALME-3M melanoma
MCF7 breast = tested on: MCF7 breast
MDA-MB-231 breast = tested on: MDA-MB-231 breast
MDA-MB-435 = tested on: MDA-MB-435
MDA-N = tested on: MDA-N
MOLT-4 leukemia = tested on: MOLT-4 leukemia
NCI-H226 lung = tested on: NCI-H226 lung
NCI-H23 lung = tested on: NCI-H23 lung
NCI-H460 lung = tested on: NCI-H460 lung
NCI-H522 lung = tested on: NCI-H522 lung
NCI/ADR-RES ovarian = tested on: NCI/ADR-RES ovarian
OVCAR-3 ovarian = tested on: OVCAR-3 ovarian
OVCAR-4 ovarian = tested on: OVCAR-4 ovarian
OVCAR-5 ovarian = tested on: OVCAR-5 ovarian
OVCAR-8 ovarian = tested on: OVCAR-8 ovarian
PC-3 prostate = tested on: PC-3 prostate
RPMI-8226 leukemia = tested on: RPMI-8226 leukemia
RXF 393 renal = tested on: RXF 393 renal
SF-268 CNS = tested on: SF-268 CNS
SF-295 CNS = tested on: SF-295 CNS
SF-539 CNS = tested on: SF-539 CNS
SK-MEL-2 melanoma = tested on: SK-MEL-2 melanoma
SK-MEL-28 melanoma = tested on: SK-MEL-28 melanoma
SK-MEL-5 melanoma = tested on: SK-MEL-5 melanoma
SK-OV-3 ovarian = tested on: SK-OV-3 ovarian
SN12C renal = tested on: SN12C renal
SNB-19 CNS = tested on: SNB-19 CNS
SNB-75 CNS = tested on: SNB-75 CNS
SR leukemia = tested on: SR leukemia
SW-620 colon = tested on: SW-620 colon
T-47D breast = tested on: T-47D breast
TK-10 renal = tested on: TK-10 renal
U251 CNS = tested on: U251 CNS
UACC-257 melanoma = tested on: UACC-257 melanoma
UACC-62 melanoma = tested on: UACC-62 melanoma
UO-31 renal = tested on: UO-31 renal

Measured: TGI

NC(C(=O)O)c1cc(=O)[nH]o1 (configuration not stated)
> 69.9 µM: BT-549 breast
> 100 µM: all other assays above

O=C1Nc2ccc(Br)cc2C1=Nc1ccc2c(c1)OCO2
43 µM: NCI-H522 lung
44.5 µM: HOP-62 NSCLC | KM12 colon
73.5 µM: SR leukemia
34.8 µM: UACC-257 melanoma
39.1 µM: HT29 colon
55.3 µM: CCRF-CEM leukemia
50.5 µM: BT-549 breast
78.7 µM: SF-295 CNS
74.8 µM: EKVX NSCLC
39.2 µM: MDA-MB-231 breast
35.6 µM: MALME-3M melanoma
40.6 µM: M14 melanoma
48.2 µM: 786-0 renal
64.9 µM: LOX IMVI melanoma
53.4 µM: HCT-15 colon
30 µM: HCC-2998 colon | SK-MEL-5 melanoma
25.3 µM: U251 CNS
17.1 µM: OVCAR-4 ovarian
22.4 µM: MDA-MB-435
67.9 µM: NCI-H460 lung
31.9 µM: COLO 205 colon
63.2 µM: RPMI-8226 leukemia
97.3 µM: A498 renal
60.8 µM: NCI-H226 lung
68.7 µM: ACHN renal
30.4 µM: MDA-N
44.1 µM: UO-31 renal
98.7 µM: HS 578T breast
51.9 µM: OVCAR-5 ovarian
61.8 µM: OVCAR-3 ovarian
37.3 µM: SF-539 CNS
35.3 µM: SK-MEL-2 melanoma
43.6 µM: HL-60(TB) leukemia
34.4 µM: SN12C renal
85.8 µM: NCI/ADR-RES ovarian
64.5 µM: CAKI-1 renal
74.1 µM: SW-620 colon
33.6 µM: HCT-116 colon | PC-3 prostate
61.6 µM: K-562 leukemia
29.1 µM: UACC-62 melanoma
38.9 µM: RXF 393 renal
59.6 µM: TK-10 renal
50.2 µM: MOLT-4 leukemia
98.4 µM: SNB-75 CNS
37 µM: MCF7 breast
> 100 µM: all other assays above

CCOC(=O)NN(C(=O)OCC)C(=C(c1ccccc1)N1CCOCC1)N(NC(=O)OCC)C(=O)OCC
> 100 µM: all assays above
